Measured values taken from patent US12377152B2, “Compounds for degrading alpha-synuclein aggregates and uses thereof” (APRINOIA THERAPEUTICS LIMITED, priority 2019, dated 2025).

Target: α-synuclein aggregates (Homo sapiens (Human), UniProt P37840)
Experiment: ReNcell VM α-synuclein aggregation assay
Assay type: cell-based
Conditions: for DC50: ReNcell VM cells, read-out: Activity (DC50, concentration at which 50% of α-synuclein aggregates has been degraded)
Protocol: The ReNcell VM α-synuclein aggregation assay was conducted at Charles River Laboratories (CRL). ReNcell VM is an immortalized human neural progenitor cell line derived from the ventral mesencephalon region of the brain. ReNcell VM cells were selected as in vitro cellular model for the α-synuclein aggregation assay, based on their growth features, differentiation potential into terminally differentiated neurons and amenability to adenoviral transduction. Aggregated human wild type α-synuclein was overexpressed through adenoviral delivery. Aggregated α-synuclein was detected with the aggregate-selective anti-α-synuclein antibody MJFR14 using immunocytochemistry; total α-synuclein levels were detected with Syn205 (α/β-synuclein-specific antibody).
The ReNcell VM α-synuclein aggregation assay was applied for compound screening to identify compounds capable of degrading α-synuclein aggregates. […] Immunoreactivity toward aggregated (MJFR14) and total α-synuclein (Syn205) was quantified using high content-based segmentation of immunoactive areas in immunocytochemical images (performed with the IN Cell 2200 (GE Healthcare)), followed by quantification of immunofluorescent intensity (performed by CRL's developed algorithm using IN Cell Developer Toolbox software).
Percentage effect (PE): Inhibition in comparison to BLANK (0.1% DMSO).
PE=100−(signal of compound/average signal BLANK)×100
Compound-induced cytotoxicity (% remaining cells)
% remaining cells=(nuclei count of compound/average nuclei count of BLANK)×100

[1] = 24 hour treatment, differentiated ReNcell VM cells

DC50	inhibition of MJFR14 immunoreactivity [1]	inhibition of MJFR14 immunoreactivity (6-day treatment, immunocytochemical images)	Structure (SMILES)
> 10 µM			CN(C)c1ccc(-c2ccc(-c3nc4ccc(OCCOCCOc5cccc6c5CN(C5CCC(=O)NC5=O)C6=O)cc4s3)c(C(F)(F)F)c2)cn1 (stereo not shown) [Compound 180950]
0.01 to 0.9 µM	concentration-dependent inhibition		COc1ccc2nc(-c3ccc(-c4ccnc(NCCOCCOc5ccc6c(c5)CN(C5CCC(=O)NC5=O)C6=O)c4)cc3)cn2c1 (stereo not shown) [Compound 162640, 3-[6-[2-[2-[[4-[4-(6-methoxyimidazo[1,2-a]pyridin-2-yl)phenyl]pyridin-2-yl]amino]ethoxy]ethoxy]-3-oxidanylidene-1H-isoindol-2-yl]piperidine-2,6-dione]
> 10 µM			COc1ccc2nc(-c3ccc(-c4ccnc(NC(=O)CCCCOc5ccc6c(c5)CN(C5CCC(=O)NC5=O)C6=O)c4)cc3)cn2c1 (stereo not shown) [Compound 130177]
> 10 µM			CN(C)c1ccc2nc(-c3ccc(-c4ccc(NCCOCCOc5ccc6c(c5)CN(C5CCC(=O)NC5=O)C6=O)nc4)cc3)sc2c1 (stereo not shown) [Compound 170352]
> 10 µM			O=C1CCC(N2Cc3cc(OCCOCCNc4cc(-c5ccc(-c6cn7ccccc7n6)cc5)ccn4)ccc3C2=O)C(=O)N1 (stereo not shown) [Compound 137955]
> 10 µM			COc1ccc2nc(-c3ccc(-c4ccnc(NCCOCCOCC(=O)NC(C(=O)N5C[C@H](O)C[C@H]5C(=O)NCc5ccc(-c6scnc6C)cc5)C(C)(C)C)c4)cc3)cn2c1 (stereo partly shown) [Compound 177685]
> 10 µM			Cc1ncsc1-c1ccc(CNC(=O)[C@@H]2C[C@@H](O)CN2C(=O)[C@@H](NC(=O)COCCOCCOCCOCCOCCNc2ccc3nc(-c4ccc(-c5ccc(N(C)C)nc5)cc4)sc3c2)C(C)(C)C)cc1 (racemic) [Compound 161247, rac-(2R,4S)—N-[[4-(4-methyl-1,3-thiazol-5-yl)phenyl]methyl]-4-hydroxy-1-[rac-(2R)-2-[2-[2-[2-[2-[2-[2-[[2-[4-[6-(dimethylamino)pyridin-3-yl]phenyl]-1,3-benzothiazol-6-yl]-amino]ethoxy]ethoxy]ethoxy]ethoxy]ethoxy]ethanoylamino]-3,3-dimethyl-butanoyl]pyrrolidine-2-carboxamide]
0.01 to 0.9 µM			CN(C)c1ccc(-c2ccc(-c3nc4ccc(OCCOCCOc5ccc6c(c5)CN(C5CCC(=O)NC5=O)C6=O)cc4o3)cc2)cn1 (stereo not shown) [Compound 163365]
> 10 µM			CN(C)c1ccc(-c2ccc(-c3nc4ccc(NC(=O)CCOCCOc5ccc6c(c5)CN(C5CCC(=O)NC5=O)C6=O)cc4s3)c(C(F)(F)F)c2)cn1 (stereo not shown) [Compound 132560]
< 0.01 µM	concentration-dependent inhibition		O=C1CCC(N2Cc3cc(OCCOCCNc4cc(-c5ccc(-c6nc7ccc(F)cc7s6)cc5)ccn4)ccc3C2=O)C(=O)N1 (stereo not shown) [Compound 180948]
> 10 µM			CN(C)c1ccc(-c2ccc(-c3nc4ccc(NC(=O)CCOCCOc5ccc6c(c5)CN(C5CCC(=O)NC5=O)C6=O)cc4s3)cc2)cn1 (stereo not shown) [Compound 170358]
> 10 µM			O=C1CCC(N2Cc3cc(OCCOCCNc4ccc(-c5ccc(-c6cc7ccncc7[nH]6)cc5)cn4)ccc3C2=O)C(=O)N1 (stereo not shown) [Compound 165954]
> 10 µM			Cc1ncsc1-c1ccc(CNC(=O)[C@@H]2C[C@@H](O)CN2C(=O)[C@@H](NC(=O)COCCOCCOCCOCCOCCNc2ccc(-c3ccc(-c4nc5ccc(N(C)C)cc5s4)cc3)cn2)C(C)(C)C)cc1 (racemic) [Compound 161598, rac-(2R,4S)—N-[[4-(4-methyl-1,3-thiazol-5-yl)phenyl]methyl]-4-oxidanyl-1-[rac-(2R)-2-[2-[2-[2-[2-[2-[2-[[5-[4-[6-(dimethylamino)-1,3-benzothiazol-2-yl]phenyl]pyridin-2-yl]amino]ethoxy]ethoxy]ethoxy]ethoxy]ethoxy]ethanoylamino]-3,3-dimethyl-butanoyl]pyrrolidine-2-carboxamide]
> 10 µM			COc1ccc2nc(-c3ccc(-c4ccc(NCCOCCOc5cccc6c5C(=O)N(C5CCC(=O)NC5=O)C6=O)nc4)cc3)sc2c1 (stereo not shown) [Compound 177038]
> 10 µM			CN(C)c1ccc(-c2ccc(-c3nc4ccc(NCCOCCOCCOCCOCCOCCNc5cccc6c5C(=O)N(C5CCC(=O)NC5=O)C6=O)cc4s3)cc2)cn1 (stereo not shown) [Compound 170355]
> 10 µM			CN(C)c1ccc(-c2ccc(-c3nc4ccc(NC(=O)CCOCCOCCOc5ccc6c(c5)CN(C5CCC(=O)NC5=O)C6=O)cc4s3)c(C(F)(F)F)c2)cn1 (stereo not shown) [Compound 138266]
> 10 µM			Cc1ncsc1-c1ccc(CNC(=O)[C@@H]2C[C@@H](O)CN2C(=O)C(NC(=O)COCCOCCNc2cc(-c3ccc(-c4nc5ccc(F)cc5s4)cc3)ccn2)C(C)(C)C)cc1 (stereo partly shown) [Compound 165810]
0.9 to 10 µM	concentration-dependent inhibition	clear inhibition	CN(C)c1ccc(-c2ccc(-c3nc4ccc(NCCCNC(=O)COc5ccc6c(c5)CN(C5CCC(=O)NC5=O)C6=O)cc4s3)c(C(F)(F)F)c2)cn1 (stereo not shown) [Compound 166362]
> 10 µM			CN(C)c1ccc2nc(-c3ccc(-c4ccnc(NCCOCCOc5ccc6c(c5)CN(C5CCC(=O)NC5=O)C6=O)c4)cc3)sc2c1 (stereo not shown) [Compound 165950]

DC50	inhibition of MJFR14 immunoreactivity [1]	inhibition of MJFR14 immunoreactivity (6-day treatment, immunocytochemical images)	Structure (SMILES)
> 10 µM			COc1ccc2nc(-c3ccc(-c4ccnc(NCCOCCOc5cccc6c5CN(C5CCC(=O)NC5=O)C6=O)c4)cc3)cn2c1 (stereo not shown) [Compound 190753]
> 10 µM			CN(C)c1ccc(-c2ccc(-c3nc4ccc(OCCOCCOCCOc5ccc6c(c5)CN(C5CCC(=O)NC5=O)C6=O)cc4s3)c(C(F)(F)F)c2)cn1 (stereo not shown) [Compound 174251]
> 10 µM			O=C1CCC(N2Cc3cc(OCCOCCNc4cc(-c5ccc(-c6cn7cc(F)ccc7n6)cc5)ccn4)ccc3C2=O)C(=O)N1 (stereo not shown) [Compound 165824]
0.01 to 0.9 µM	concentration-dependent inhibition		CN(C)c1ccc(-c2ccc(-c3nc4ccc(NC(=O)CCOCCOCCOc5ccc6c(c5)CN(C5CCC(=O)NC5=O)C6=O)cc4s3)cc2)cn1 (stereo not shown) [Compound 170357]
> 10 µM			CN1C(=O)CCC(N2Cc3cc(OCCOCCOc4ccc5nc(-c6ccc(-c7ccc(N(C)C)nc7)cc6)sc5c4)ccc3C2=O)C1=O (stereo not shown) [Compound 177036]
> 10 µM			CN(C)c1ccc(-c2ccc(-c3nc4ccc(OCCCOc5ccc6c(c5)CN(C5CCC(=O)NC5=O)C6=O)cc4s3)cc2)cn1 (stereo not shown) [Compound 184605]
> 10 µM			CN1C(=O)CCC(N2Cc3cc(OCCOCCNc4ccc5nc(-c6ccc(-c7ccc(N(C)C)nc7)cc6C(F)(F)F)sc5c4)ccc3C2=O)C1=O (stereo not shown) [Compound 133065]
> 10 µM			Cc1ncsc1-c1ccc(CNC(=O)[C@@H]2C[C@@H](O)CN2C(=O)[C@@H](NC(=O)COCCOCCNc2ccc3nc(-c4ccc(-c5ccc(N(C)C)nc5)cc4C(F)(F)F)sc3c2)C(C)(C)C)cc1 [Compound 180187]
0.9 to 10 µM			COc1ccc2nc(-c3ccc(-c4ccc(NCCOCCOc5ccc6c(c5)CN(C5CCC(=O)NC5=O)C6=O)nc4)cc3)cn2c1 (stereo not shown) [Compound 177037]
> 10 µM			CN(C)c1ccc(-c2ccc(-c3nc4ccc(NCCOCCNc5cccc6c5C(=O)N(C5CCC(=O)NC5=O)C6=O)cc4s3)cc2)cn1 (stereo not shown) [Compound 170356]
> 10 µM			CN(C)c1ccc(-c2ccc(-c3nc4ccc(NCCOCCOc5ccc6c(c5)C(=O)N(C5CCC(=O)NC5=O)C6=O)cc4s3)cc2)cn1 (stereo not shown) [Compound 160219, 2-[2,6-bis(oxo)piperidin-3-yl]-5-[2-[2-[[2-[4-[6-(dimethylamino)pyridin-3-yl]phenyl]-1,3-benzothiazol-6-yl]amino]ethoxy]ethoxy]isoindole-1,3-dione]
> 10 µM			CN(C)c1ccc(-c2ccc(-c3cn4cc(OCCOCCOc5ccc6c(c5)CN(C5CCC(=O)NC5=O)C6=O)ccc4n3)cc2)c(F)n1 (stereo not shown) [Compound 170450]
> 10 µM			Cc1ncsc1-c1ccc(CNC(=O)[C@@H]2C[C@@H](O)CN2C(=O)[C@@H](NC(=O)COCCOCCOc2ccc3nc(-c4ccc(-c5ccc(N(C)C)nc5)cc4C(F)(F)F)sc3c2)C(C)(C)C)cc1 [Compound 165554]
> 10 µM			CN(C)c1ccc(-c2ccc(-c3nc4ccc(NCCOCCN5C(=O)CCC(N6Cc7c(N)cccc7C6=O)C5=O)cc4s3)cc2)cn1 (stereo not shown) [Compound 162641, 3-(7-azanyl-3-oxidanylidene-1H-isoindol-2-yl)-1-[2-[2-[[2-[4-[6-(dimethylamino)pyridin-3-yl]phenyl]-1,3-benzothiazol-6-yl]amino]ethoxy]ethyl]piperidine-2,6-dione]
> 10 µM			CN(C)c1ccc(-c2ccc(-c3nc4ccc(NCCOCCOc5cccc6c5CN(C5CCC(=O)NC5=O)C6=O)cc4s3)c(C(F)(F)F)c2)cn1 (stereo not shown) [Compound 185563]
> 10 µM			O=C1CCC(N2Cc3cc(OCCCC(=O)Nc4cc(-c5ccc(-c6nc7ccc(F)cc7s6)cc5)ccn4)ccc3C2=O)C(=O)N1 (stereo not shown) [Compound 133678]
> 10 µM			CN(C)c1ccc2nc(-c3ccc(-c4ccc(NCCOCCN5C(=O)CCC(N6Cc7cc(O)ccc7C6=O)C5=O)nc4)cc3)sc2c1 (stereo not shown) [Compound 160624, 1-(2-(2-((5-(4-(6-(dimethylamino)benzo[d]thiazol-2-yl)phenyl)pyridin-2-yl)amino)ethoxy)ethyl)-3-(5-hydroxy-1-oxoisoindolin-2-yl)piperidine-2,6-dione]
> 10 µM			COc1ccc2nc(-c3ccc(-c4ccc(NCCOCCOc5ccc6c(c5)CN(C5CCC(=O)NC5=O)C6=O)nc4)cc3)sc2c1 (stereo not shown) [Compound 177039]
0.9 to 10 µM			CN(C)c1ccc(-c2ccc(-c3cn4cc(OCCOCCN5C(=O)CCC(N6C(=O)c7ccc(O)cc7C6=O)C5=O)ccc4n3)cc2)c(F)n1 (stereo not shown) [Compound 170350]
